The target of assay [1] is T1, Protein mono-ADP-ribosyltransferase PARP14 (Homo sapiens, UniProt Q460N5). Nature of the assay: Inhibition of recombinant human His6-tagged PARP14 catalytic/WWE domain (1459 to 1801 residues) expressed in Escherichia coli BL21(DE3) preincubated for 15 mins followed by biotinylated NAD+ addition by chemiluminescence assay.
Assay [2] addresses T2, Poly [ADP-ribose] polymerase tankyrase-1 (Homo sapiens, UniProt O95271).
T2 sequence (O95271 whole entry): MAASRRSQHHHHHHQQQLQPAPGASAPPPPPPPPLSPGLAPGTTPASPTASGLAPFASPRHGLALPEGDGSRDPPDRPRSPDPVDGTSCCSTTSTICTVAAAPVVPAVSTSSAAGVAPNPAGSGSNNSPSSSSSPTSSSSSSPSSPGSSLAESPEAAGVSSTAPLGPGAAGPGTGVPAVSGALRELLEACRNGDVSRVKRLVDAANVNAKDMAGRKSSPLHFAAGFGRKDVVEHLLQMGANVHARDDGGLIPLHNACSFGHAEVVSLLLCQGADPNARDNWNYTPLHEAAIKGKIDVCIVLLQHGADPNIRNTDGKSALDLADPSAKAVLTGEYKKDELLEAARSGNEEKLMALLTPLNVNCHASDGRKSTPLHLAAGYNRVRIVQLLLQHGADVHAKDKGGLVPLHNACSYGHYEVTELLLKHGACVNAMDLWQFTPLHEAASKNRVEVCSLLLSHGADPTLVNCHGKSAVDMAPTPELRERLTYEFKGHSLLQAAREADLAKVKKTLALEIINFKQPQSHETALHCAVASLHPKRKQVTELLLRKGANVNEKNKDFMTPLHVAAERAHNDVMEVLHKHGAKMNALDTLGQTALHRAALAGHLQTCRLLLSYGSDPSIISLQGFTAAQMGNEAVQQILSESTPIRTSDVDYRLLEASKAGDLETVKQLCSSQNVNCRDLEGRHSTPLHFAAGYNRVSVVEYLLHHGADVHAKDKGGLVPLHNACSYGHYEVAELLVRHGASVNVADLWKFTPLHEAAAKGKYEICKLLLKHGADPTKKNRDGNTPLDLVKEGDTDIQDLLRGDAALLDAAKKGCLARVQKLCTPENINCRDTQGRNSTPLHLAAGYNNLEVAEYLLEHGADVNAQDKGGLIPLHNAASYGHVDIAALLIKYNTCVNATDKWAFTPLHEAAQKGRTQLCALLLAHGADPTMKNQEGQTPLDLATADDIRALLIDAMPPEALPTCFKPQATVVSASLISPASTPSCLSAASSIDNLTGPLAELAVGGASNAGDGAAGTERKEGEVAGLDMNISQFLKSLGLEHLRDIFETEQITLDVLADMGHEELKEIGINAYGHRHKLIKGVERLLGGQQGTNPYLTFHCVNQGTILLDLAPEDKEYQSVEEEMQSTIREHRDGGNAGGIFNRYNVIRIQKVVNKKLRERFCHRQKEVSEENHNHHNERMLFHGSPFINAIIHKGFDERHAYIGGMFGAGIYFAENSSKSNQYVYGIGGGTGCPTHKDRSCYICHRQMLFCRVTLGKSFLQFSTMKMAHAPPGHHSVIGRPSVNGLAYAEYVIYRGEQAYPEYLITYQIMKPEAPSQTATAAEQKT
Nature of the assay: Inhibition of recombinant human His6-tagged PARP5a catalytic domain (1091 to 1325 residues) expressed in Escherichia coli BL21(DE3) preincubated for 15 mins followed by biotinylated NAD+ addition by chemiluminescence assay.

The target in assay [3] is T3, Poly [ADP-ribose] polymerase 1 (Homo sapiens, UniProt P09874). Briefly: Inhibition of recombinant human full length His6-tagged PARP1 expressed in Escherichia coli BL21(DE3) preincubated for 15 mins followed by biotinylated NAD+ addition by chemiluminescence assay.
The species named for another assay is Homo sapiens. Briefly: Selectivity ratio of IC50 for recombinant human His6-tagged PARP5a catalytic domain (1091 to 1325 residues) to IC50 for recombinant human His6-tagged PARP14 catalytic/WWE domain (1459 to 1801 residues).
Assay [4] addresses T4, Protein mono-ADP-ribosyltransferase PARP12 (Homo sapiens, UniProt Q9H0J9).
T4 sequence (Q9H0J9 whole entry): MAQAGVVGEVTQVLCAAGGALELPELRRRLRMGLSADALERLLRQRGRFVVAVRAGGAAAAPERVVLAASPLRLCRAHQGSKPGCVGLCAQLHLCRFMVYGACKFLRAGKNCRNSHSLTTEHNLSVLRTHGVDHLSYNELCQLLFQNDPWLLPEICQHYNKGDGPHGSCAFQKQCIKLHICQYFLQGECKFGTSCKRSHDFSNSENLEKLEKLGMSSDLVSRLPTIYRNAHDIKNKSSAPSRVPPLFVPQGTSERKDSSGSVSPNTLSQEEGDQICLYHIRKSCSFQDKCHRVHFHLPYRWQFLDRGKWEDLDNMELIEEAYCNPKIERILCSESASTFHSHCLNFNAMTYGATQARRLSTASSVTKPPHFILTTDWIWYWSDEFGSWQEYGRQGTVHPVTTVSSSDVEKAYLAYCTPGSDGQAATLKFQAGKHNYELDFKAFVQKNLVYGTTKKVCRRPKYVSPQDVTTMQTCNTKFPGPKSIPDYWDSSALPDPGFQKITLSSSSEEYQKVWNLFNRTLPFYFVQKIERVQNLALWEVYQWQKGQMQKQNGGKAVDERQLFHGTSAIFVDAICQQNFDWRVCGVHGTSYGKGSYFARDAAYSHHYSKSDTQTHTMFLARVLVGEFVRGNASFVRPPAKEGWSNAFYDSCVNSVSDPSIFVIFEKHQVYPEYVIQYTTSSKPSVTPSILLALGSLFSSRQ
Nature of the assay: Inhibition of His6-tagged PARP12 (unknown origin) preincubated for 15 mins followed by biotinylated NAD+ addition by chemiluminescence assay.

Assay [5] deals with T5, Protein mono-ADP-ribosyltransferase PARP15 (Homo sapiens, UniProt Q460N3).
T5 sequence (Q460N3 whole entry): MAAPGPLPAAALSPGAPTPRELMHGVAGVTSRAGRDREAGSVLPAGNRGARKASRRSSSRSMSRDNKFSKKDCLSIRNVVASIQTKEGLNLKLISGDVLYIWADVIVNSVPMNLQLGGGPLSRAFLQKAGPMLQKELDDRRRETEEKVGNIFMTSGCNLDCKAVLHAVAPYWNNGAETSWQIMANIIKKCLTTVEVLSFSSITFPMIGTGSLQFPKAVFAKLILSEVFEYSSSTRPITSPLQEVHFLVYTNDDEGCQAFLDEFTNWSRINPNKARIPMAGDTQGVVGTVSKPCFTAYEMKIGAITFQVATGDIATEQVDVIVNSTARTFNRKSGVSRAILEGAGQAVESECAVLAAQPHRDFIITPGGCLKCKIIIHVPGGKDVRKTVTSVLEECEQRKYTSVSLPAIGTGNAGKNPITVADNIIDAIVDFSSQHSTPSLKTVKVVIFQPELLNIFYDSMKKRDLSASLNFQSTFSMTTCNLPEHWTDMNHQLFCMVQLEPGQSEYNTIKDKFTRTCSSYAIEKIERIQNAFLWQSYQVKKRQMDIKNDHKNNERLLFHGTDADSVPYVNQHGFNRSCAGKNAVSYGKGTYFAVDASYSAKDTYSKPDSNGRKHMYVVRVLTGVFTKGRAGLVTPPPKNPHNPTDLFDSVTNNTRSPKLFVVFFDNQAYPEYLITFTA
Briefly: Inhibition of His6-tagged PARP15 (unknown origin) preincubated for 15 mins followed by biotinylated NAD+ addition by chemiluminescence assay.

Assay [6] deals with T6, Protein mono-ADP-ribosyltransferase PARP16 (Homo sapiens, UniProt Q8N5Y8).
T6 sequence (Q8N5Y8 whole entry): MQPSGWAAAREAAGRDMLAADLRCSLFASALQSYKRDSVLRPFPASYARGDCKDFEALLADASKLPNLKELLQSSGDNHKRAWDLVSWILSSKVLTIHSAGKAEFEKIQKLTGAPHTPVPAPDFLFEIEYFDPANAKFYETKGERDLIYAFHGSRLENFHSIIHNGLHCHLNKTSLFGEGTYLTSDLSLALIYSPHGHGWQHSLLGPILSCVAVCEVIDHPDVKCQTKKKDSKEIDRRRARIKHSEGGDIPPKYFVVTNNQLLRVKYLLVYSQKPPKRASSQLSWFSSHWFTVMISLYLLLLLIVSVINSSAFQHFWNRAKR
Briefly: Inhibition of His6-tagged PARP16 (unknown origin) preincubated for 15 mins followed by biotinylated NAD+ addition by chemiluminescence assay.

In assay [7] the target is T1, Protein mono-ADP-ribosyltransferase PARP14. Briefly: Inhibition of recombinant human His6-tagged PARP14 catalytic/WWE domain (1459 to 1801 residues) expressed in Escherichia coli BL21(DE3) at 5 uM preincubated for 15 mins followed by biotinylated NAD+ addition by chemiluminescence assay relative to control.
Assay [8] has as its target T3, Poly [ADP-ribose] polymerase 1. Nature of the assay: Inhibition of recombinant human full length His6-tagged PARP1 expressed in Escherichia coli BL21(DE3) at 5 uM preincubated for 15 mins followed by biotinylated NAD+ addition by chemiluminescence assay relative to control.

20 molecules from ChEMBL document CHEMBL4020766, “Design and synthesis of potent inhibitors of the mono(ADP-ribosyl)transferase, PARP14” (Bioorg Med Chem Lett, 2017) can be followed below.

One may read the inhibition as the drop in the measured response relative to a control, in per cent.

T3 sequence (P09874 whole entry, the tested form may be a part): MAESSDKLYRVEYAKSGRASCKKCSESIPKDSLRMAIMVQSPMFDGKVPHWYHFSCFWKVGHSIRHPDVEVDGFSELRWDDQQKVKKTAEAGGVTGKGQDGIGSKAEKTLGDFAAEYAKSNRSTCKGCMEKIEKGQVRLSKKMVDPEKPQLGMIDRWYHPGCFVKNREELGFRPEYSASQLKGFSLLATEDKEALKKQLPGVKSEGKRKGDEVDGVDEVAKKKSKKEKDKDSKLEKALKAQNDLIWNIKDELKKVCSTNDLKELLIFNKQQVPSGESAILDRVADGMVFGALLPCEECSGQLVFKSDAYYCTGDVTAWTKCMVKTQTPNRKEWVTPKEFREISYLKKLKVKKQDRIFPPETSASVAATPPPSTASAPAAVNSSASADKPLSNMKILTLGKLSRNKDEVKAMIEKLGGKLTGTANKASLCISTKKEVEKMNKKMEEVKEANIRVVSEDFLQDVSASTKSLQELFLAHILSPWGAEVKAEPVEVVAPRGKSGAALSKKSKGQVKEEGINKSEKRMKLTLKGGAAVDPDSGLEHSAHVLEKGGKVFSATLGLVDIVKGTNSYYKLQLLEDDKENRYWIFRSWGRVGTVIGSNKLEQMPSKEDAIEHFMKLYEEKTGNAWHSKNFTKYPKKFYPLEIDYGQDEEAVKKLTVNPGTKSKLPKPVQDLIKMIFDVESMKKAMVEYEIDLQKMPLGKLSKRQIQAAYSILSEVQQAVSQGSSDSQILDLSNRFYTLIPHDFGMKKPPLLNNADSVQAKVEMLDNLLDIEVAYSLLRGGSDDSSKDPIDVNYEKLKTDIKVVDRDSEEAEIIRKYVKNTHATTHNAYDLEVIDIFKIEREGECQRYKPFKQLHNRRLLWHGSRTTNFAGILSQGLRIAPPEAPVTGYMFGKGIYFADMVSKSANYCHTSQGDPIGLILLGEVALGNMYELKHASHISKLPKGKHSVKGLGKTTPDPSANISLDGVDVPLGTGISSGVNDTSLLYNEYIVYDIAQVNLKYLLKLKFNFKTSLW
T1 sequence (Q460N5 whole entry, the tested form may be a part): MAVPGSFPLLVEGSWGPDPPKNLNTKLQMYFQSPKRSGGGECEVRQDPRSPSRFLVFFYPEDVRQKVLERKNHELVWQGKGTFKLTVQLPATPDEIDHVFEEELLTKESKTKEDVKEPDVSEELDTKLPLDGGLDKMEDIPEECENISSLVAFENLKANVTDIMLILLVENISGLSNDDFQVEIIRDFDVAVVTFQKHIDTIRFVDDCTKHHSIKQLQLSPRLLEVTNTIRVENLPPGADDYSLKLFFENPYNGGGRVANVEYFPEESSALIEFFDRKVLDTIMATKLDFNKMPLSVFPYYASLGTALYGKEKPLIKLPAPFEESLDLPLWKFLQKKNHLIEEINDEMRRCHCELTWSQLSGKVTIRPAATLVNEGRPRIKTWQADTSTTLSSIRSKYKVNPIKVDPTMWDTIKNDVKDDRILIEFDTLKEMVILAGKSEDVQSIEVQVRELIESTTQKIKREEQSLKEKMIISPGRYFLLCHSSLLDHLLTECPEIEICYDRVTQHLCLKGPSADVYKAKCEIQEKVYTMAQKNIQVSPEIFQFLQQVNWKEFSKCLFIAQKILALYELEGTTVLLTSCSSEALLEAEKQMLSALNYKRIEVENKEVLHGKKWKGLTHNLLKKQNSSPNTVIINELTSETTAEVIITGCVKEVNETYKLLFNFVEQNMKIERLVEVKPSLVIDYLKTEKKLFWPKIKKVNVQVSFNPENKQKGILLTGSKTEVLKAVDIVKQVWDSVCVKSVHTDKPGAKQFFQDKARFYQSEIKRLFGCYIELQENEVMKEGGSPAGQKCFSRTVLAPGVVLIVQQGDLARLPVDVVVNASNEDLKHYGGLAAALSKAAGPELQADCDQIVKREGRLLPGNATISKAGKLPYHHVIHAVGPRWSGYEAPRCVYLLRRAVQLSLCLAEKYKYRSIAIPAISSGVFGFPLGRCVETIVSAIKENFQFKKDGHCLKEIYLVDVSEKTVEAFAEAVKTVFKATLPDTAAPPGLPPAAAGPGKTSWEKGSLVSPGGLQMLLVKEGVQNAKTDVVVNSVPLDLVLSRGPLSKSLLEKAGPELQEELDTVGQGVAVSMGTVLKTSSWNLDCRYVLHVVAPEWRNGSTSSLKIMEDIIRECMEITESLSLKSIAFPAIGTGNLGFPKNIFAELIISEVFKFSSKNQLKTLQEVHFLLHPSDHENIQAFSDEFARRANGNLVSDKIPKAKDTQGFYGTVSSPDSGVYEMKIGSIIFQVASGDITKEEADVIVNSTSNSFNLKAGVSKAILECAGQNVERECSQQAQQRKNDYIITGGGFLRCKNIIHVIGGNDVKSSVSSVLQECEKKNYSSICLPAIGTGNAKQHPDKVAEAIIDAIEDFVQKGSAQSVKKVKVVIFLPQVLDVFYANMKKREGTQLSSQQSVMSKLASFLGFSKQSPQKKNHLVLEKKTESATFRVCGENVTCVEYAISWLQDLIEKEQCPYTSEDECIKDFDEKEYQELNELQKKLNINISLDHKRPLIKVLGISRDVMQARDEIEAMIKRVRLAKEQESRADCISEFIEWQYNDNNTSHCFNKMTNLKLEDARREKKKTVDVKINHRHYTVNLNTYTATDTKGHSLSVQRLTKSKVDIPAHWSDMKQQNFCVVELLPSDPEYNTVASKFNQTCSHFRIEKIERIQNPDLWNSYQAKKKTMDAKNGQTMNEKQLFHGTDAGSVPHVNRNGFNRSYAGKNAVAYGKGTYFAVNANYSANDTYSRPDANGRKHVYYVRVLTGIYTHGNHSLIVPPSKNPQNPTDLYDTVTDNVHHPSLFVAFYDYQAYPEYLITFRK

As to `NC(=O)c1cccc(NC(=O)/C=C\C(=O)N2CCC(CCc3ccccc3)CC2)c1`, the figures for the IC50 in assay [1] (read-out: IC50) and in assay [1] (read-out: pIC50 (converted)) were 650 nM and 676 nM, respectively.
As to `NC(=O)c1cccc(NC(=O)/C=C\C(=O)N2CCN(c3ccccc3)CC2)c1`, the IC50 was found to be 6 µM in [2] (read-out: IC50), 900 nM in assay [1] (read-out: IC50) and 370 nM in [3]. Moreover, the Ratio IC50 in the assay listed under Homo sapiens is 6.7.
As for `NC(=O)c1cccc(NC(=O)/C=C\C(=O)N2CCN(c3ccc(F)cc3)CC2)c1`, the IC50 in assay [4] was 8.2 µM; in [2] (read-out: IC50) it was 2.7 µM; in [1] (read-out: IC50) it was 700 nM; in assay [3], 560 nM; in assay [5] it was 520 nM; in assay [6], 560 nM. The Ratio IC50 in the assay filed under Homo sapiens turned out to be 3.9.
With `CCOC(=O)C1CCN(C(=O)/C=C\C(=O)Nc2cccc(C(N)=O)c2)CC1`, in assay [7], the inhibition was determined as 28%.
Regarding `NC(=O)c1cccc(NC(=O)/C=C\C(=O)N2CCC(c3ccccc3)CC2)c1`, the IC50 in assay [1] (read-out: IC50) was determined as 2200 nM.
Regarding `NC(=O)c1cccc(N2C(=O)CC(N3CCN(c4ccccc4F)CC3)C2=O)c1` (stereo unspecified), the IC50 in [1] (read-out: IC50) was above 20000 nM.
Take `CCOC(=O)CC1CCN(C(=O)/C=C\C(=O)Nc2cccc(C(N)=O)c2)CC1`: the IC50 in assay [1] (read-out: IC50) was 2400 nM; in assay [1] (read-out: pIC50 (converted)) it was 407 nM.
For `NC(=O)c1cccc(NC(=O)/C=C\C(=O)N2CCC(c3ccc(F)cc3)CC2)c1`, the IC50 was found to be 8 µM in assay [2] (read-out: IC50), 270 nM in assay [1] (read-out: IC50) and 270 nM in [3]. For the same molecule, in the assay filed under Homo sapiens, the Ratio IC50 stood at 30.
Turning to `CCOC(=O)C1CCCN(C(=O)/C=C\C(=O)Nc2cccc(C(N)=O)c2)C1` (stereo unspecified), the inhibition in assay [7] is 21%.
As to `NC(=O)c1cccc(NC(=O)/C=C\C(=O)N2CCC(Cc3ccccc3)CC2)c1`, the IC50 stood at 4.8 µM in assay [2] (read-out: IC50), 450 nM in assay [1] (read-out: IC50) and 230 nM in [3]. For the same molecule, the Ratio IC50 in the assay listed under Homo sapiens turned out to be 11.
In the case of `NC(=O)c1cccc(NC(=O)/C=C\C(=O)N2CCN(c3ccc(Cl)cc3)CC2)c1`, the IC50 in assay [2] (read-out: IC50) is 0.9 µM; in assay [2] (read-out: pIC50 (converted)), 0.977 µM; in assay [1] (read-out: IC50), 160 nM; in assay [1] (read-out: pIC50 (converted)), 617 nM; in assay [3], 220 nM. Besides, the Ratio IC50 in the assay filed under Homo sapiens turned out to be 5.6.
Consider `NC(=O)c1cccc(NC(=O)/C=C\C(=O)N2CCN(c3ccc(-c4ccccc4)cc3)CC2)c1`, for which the values for the IC50 in assay [2] (read-out: IC50), in assay [1] (read-out: IC50) and in assay [3] were 9.8 µM, 4200 nM and 800 nM, respectively.
For `COc1ccc(N2CCN(C(=O)/C=C\C(=O)Nc3cccc(C(N)=O)c3)CC2)cc1`, the IC50 in assay [1] (read-out: IC50) turned out to be 3400 nM.
With `NC(=O)c1cccc(NC(=O)/C=C\C(=O)N2CCCC(c3ccccc3)C2)c1` (stereo unspecified), the IC50 is 2.7 µM in assay [2] (read-out: IC50), 0.575 µM in [2] (read-out: pIC50 (converted)), 690 nM in [1] (read-out: IC50) and 1600 nM in assay [3].
`NC(=O)c1cccc(NC(=O)/C=C\C(=O)N2CCN(c3ccccc3F)CC2)c1`: the results for the IC50 in assay [2] (read-out: IC50), in [1] (read-out: IC50) and in assay [3] were 9.4 µM, 410 nM and 510 nM, respectively. Besides, in the assay listed under Homo sapiens, the Ratio IC50 is 23.
Consider `CC(C)(C)OC(=O)N1CCN(C(=O)/C=C\C(=O)Nc2cccc(C(N)=O)c2)CC1`, for which the IC50 in assay [1] (read-out: IC50) worked out at 370 nM.
`NC(=O)c1cccc(NC(=O)/C=C\C(=O)N2CCCCC2c2ccccc2)c1` (stereo unspecified): in [1] (read-out: IC50), the IC50 came out at 1100 nM.
Consider `NC(=O)c1cccc(NC(=O)/C=C\C(=O)N2CCCCC2Cc2ccccc2)c1` (stereo unspecified), for which, in [1] (read-out: IC50), the IC50 is 3500 nM.
Regarding `NC(=O)c1cccc(NC(=O)/C=C\C(=O)N2CCCC(Oc3ccccc3)C2)c1` (stereo unspecified), the IC50 in assay [1] (read-out: IC50) is 1400 nM. Also, the inhibition in assay [8] was 90%.
For the molecule `NC(=O)c1cccc(NC(=O)/C=C\C(=O)N2CCN(c3ncccn3)CC2)c1`, in assay [1] (read-out: IC50), the IC50 was 2800 nM.
